Assay results reported in patent publication US20250303359A1, “COMPOUNDS AND METHODS FOR SAFE MITIGATION OF OCEAN ACIDIFICATION AND CAPTURE OF ATMOSPHERIC CARBON DIOXIDE” (Negative Emissions Materials, Inc., priority 2022, published 2025).
Where two headings read alike, the source gives them in different places.

Assays:
[1] = Sinking rate of Mg(OH)2 in seawater; type: physicochemical
[2] = system: Tetraselmis suecica cultures; settings: hydroxide additions equivalent to 1 and 10 mg/L of Mg(OH)2, 6-day period
[3] = system: Skeletonema pseudocastatum
Tisbe battaglial [4] = settings: acute, 48 h, n = 1; Mg(OH)2 mixed as paste into local seawater
Tisbe battaglial [5] = settings: chronic, 7 days, n = 1; Mg(OH)2 mixed as paste into local seawater
Tetraselmis suecica = settings: for survival after six days of regrowth/culture: 1 hour exposure to 100 g/L Mg(OH)2, 200 g/L NaOH or 100 g/L Ca(OH)2, dilution to 10 mg/L, 6 days; for surviving cells immediately after dilution: 1 hour exposure to 200 g/L NaOH or 100 g/L Ca(OH)2, then dilution to 10 mg/L
Danio rerio = settings: acute, 96 h, n = 1; Mg(OH)2 paste

[Mg+2].[OH-].[OH-] [Mg(OH)2, magnesium hydroxide]
sinking rate ([1]; added as powder, visible particles (>100 μm)): 0.8-6 km/day
particle size distribution ([1]; added to seawater as paste): 5-60 μm
sinking rate ([1]; small particles of about 10 micron, based on 4 cm sinking within 10 minutes, LISST instrument): ~6 m/day
ecotoxicity (growth inhibition) [2]: not ecotoxic
pH of solution in seawater (0.05 g/L Mg(OH)2, after 115 minutes mixing (300 rpm), still increasing): 9.04
mixing time to full dissolution of particles (concentrations below ~10 mg/L, 60 m deep seawater pH 7.9-8.0, approx. 22 °C, 300 rpm): approximately 3 hours
maximum pH achieved (seawater, depends on Mg(OH)2 concentration): ~9.5
dosage showing no negative impact ([3]; standardized ecotoxicity work): 25 mg/L
dosages showing negative impact ([3]; standardized ecotoxicity work): ≥ 50 mg/L
Lowest observed effect concentration (LOEC) ([3]; sub-chronic, 72 h, n = 2, Mg(OH)2 mixed as paste into local seawater): 50 mg/L
Lowest observed effect concentration (LOEC) (Tisbe battaglial [4]): 100 mg/L
Lowest observed effect concentration (LOEC) (Tisbe battaglial [5]): >100 mg/L
survival after six days of regrowth/culture (Tetraselmis suecica): no mortality
mortality compared to the control water (Tetraselmis suecica; less than 10 hours of exposure to 100 g/L prior to dilution to 10 mg/L, survival six days after): no mortality
Lowest observed effect concentration (LOEC) (Danio rerio): >100 mg/L
lowest tested concentration showing some toxicity effect on aquatic organisms (aquatic organisms; all standard test organisms): 50 mg/L
concentration at which no toxicity effect was observed (aquatic organisms; any of the standard test organisms): 25000 ng/mL

sodium hydroxide [NaOH]
survival after six days of regrowth/culture (Tetraselmis suecica): no surviving organisms
surviving cells immediately after dilution (Tetraselmis suecica): no surviving cells

[Ca+2].[OH-].[OH-] [Ca(OH)2, calcium hydroxide]
ecotoxicity (growth inhibition) [2]: not ecotoxic
survival after six days of regrowth/culture (Tetraselmis suecica): very few living cells
surviving cells immediately after dilution (Tetraselmis suecica): no surviving cells
